Where “and” joins values, the source holds several entries; their conditions need not be identical. Equal values may be shown once. Entries after “also recorded” stand apart in the source; their conditions may differ.
Columns and labels:
[1] = Whole body autoradiography after single oral [14C]-olaparib; type: in vivo, pigmented rats; settings: for radioactivity concentration, Blood / radioactivity concentration, Brain / radioactivity concentration, Choroid plexus / radioactivity concentration, Kidney cortex (outer) / radioactivity concentration, Large intestine mucosa / radioactivity concentration, Liver / radioactivity concentration, Meninges / radioactivity concentration, Pineal body / radioactivity concentration, Plasma / radioactivity concentration, Small intestine mucosa / radioactivity concentration, Spinal cord: rat, oral [14C]-olaparib 15 mg/kg
Description: Canine kidney epithelial cells, stably expressing human MDR1 cDNA (Madin-Darby canine kidney type II [MDCKII]–MDR1 cells) or empty vector (MDCKII control), were used to model the intact BBB and determine permeability coefficients of (^14C)-olaparib in the presence of ketoconazole (25 μM). Whole body autoradiography was performed on male pigmented rats after single oral administration of [^14C]-olaparib (15 mg/kg; 5 MBq/kg). For autoradiography studies, animal care and experiments were carried out in accordance with AstraZeneca guidelines, which comply with UK standards. […] Xenograft experiments were performed under the relevant UK Home Office Project Licence and carried out with ethical approval from the University of Glasgow under the Animal (Scientific Procedures) Act 1986 and the EU directive 2010. Mice were maintained in individually ventilated cages with environmental enrichment and following the guidelines of ARRIVE (Animal Research: Reporting of In Vivo Experiments). […] Ratiometric t-test analysis determined SER confidence intervals and P-values. Further details are available in the Supplementary Material.
Apparent permeability coefficients were calculated for apical to basolateral (Papp a‒b) and basolateral to apical transport (Papp b‒a) as described in Methods. […] (B) Single oral doses of 15 mg/kg [14C]-olaparib were administered to male pigmented rats that were subsequently culled, sectioned, and subjected to whole body autoradiography at the timepoints shown. Radioactivity was excluded from the central nervous system in all animals at all timepoints. […] Blood, tumor, and contralateral (non tumor bearing) brain were harvested and snap frozen at the time points shown. […] Note different y-axis scales.
For autoradiography studies, animal care and experiments were carried out in accordance with AstraZeneca guidelines. Male and female pigmented rats and female BALB/c nu/nu mice bearing subcutaneous HCT-116 colorectal carcinoma xenografts were treated with 15 mg/kg [^14C]-olaparib. Animals were culled by asphyxiation, carcasses frozen in hexane and solid carbon dioxide then subjected to whole body autoradiography. Radioactivity concentrations in tissue were quantified from whole-body autoradiograms using a validated image analysis system.

recurrent GBM [2] = assay: DCE-MRI of tumor perfusion and permeability before and after olaparib; type: in vivo, human; settings: stage 1 and dose expansion patients, cycle 0
Description: (§1) Secondary endpoints included PFS at 6 months (PFS-6, assessed radiologically using the RANO criteria) and radiological measurement of BBB permeability and perfusion by diffusion weighted and dynamic contrast-enhanced (DCE) MRI. […] Further details of the imaging protocol are provided in the Supplementary Material. Confidence intervals for PFS data were calculated using the exact binomial distribution.
The imaging protocol included four pre-contrast spoiled fast field echo (T1-FFE spoiled gradient echo) sequences with different flip angles (2o, 8o, 15o, 16-20o) for calculation of baseline T1 maps allowing estimation of contrast concentration from observed signal changes and a dynamic, contrast enhanced acquisition series with identical acquisition parameters as the 4th variable flip angle baseline T1 measurement (16-20o), consisting of 100-120 volumes with temporal spacing of 5.1-5.5 seconds (s). Gadolinium-based contrast agent (Gd-DTPA-BMA; Omniscan, GE Healthcare, Oslo, Norway) was injected by pressure injector as a 3 ml bolus at 4 ml/s (dose 0.1 mmol/kg) after acquisition of the seventh image volume, followed by saline flush. Data were analysed using the hybrid model [Li, Jackson Mag Res Med 2003] and in-house software. ROI placement was manual and enhancing pixels were identified through significant change in signal intensity following administration of contrast. […]

recurrent GBM [3] = assay: Efficacy: progression-free survival at 6 months (RANO); type: in vivo, human; settings: olaparib with TMZ
Description: as §1

[4] = of 16 RP2D patients, olaparib with TMZ

O=C(c1cc(Cc2n[nH]c(=O)c3ccccc23)ccc1F)N1CCN(C(=O)C2CC2)CC1 [olaparib, 4-[3-(4-cyclopropanecarbonylpiperazine-1-carbonyl)-4-fluorobenzyl]-2H-phthalazin-1-one]
radioactivity in brain or spinal cord (brain penetration) ([1]; male and female rats, single [14C]-olaparib 15 mg/kg, 5 MBq/kg, any timepoint): no brain penetration; also recorded: undetectable | radioactivity concentration, Blood ([1]; 1 hr): 2.44 nmol equivalents of olaparib per gram of tissue | radioactivity concentration, Brain ([1]; 1 hr): BLQ | radioactivity concentration, Choroid plexus ([1]; 1 hr): 0.618 nmol equivalents of olaparib per gram of tissue | radioactivity concentration, Kidney cortex (outer) ([1]; 1 hr): 9.52 nmol equivalents of olaparib per gram of tissue | radioactivity concentration, Large intestine mucosa ([1]; 1 hr): 12.1 nmol equivalents of olaparib per gram of tissue | radioactivity concentration, Liver ([1]; 1 hr): 112 nmol equivalents of olaparib per gram of tissue | radioactivity concentration, Meninges ([1]; 1 hr): 0.847 nmol equivalents of olaparib per gram of tissue | radioactivity concentration, Pineal body ([1]; 1 hr): 2.13 nmol equivalents of olaparib per gram of tissue | radioactivity concentration, Plasma ([1]; 1 hr): 9.69 nmol equivalents of olaparib per gram of tissue | radioactivity concentration, Small intestine mucosa ([1]; 1 hr): 60.5 nmol equivalents of olaparib per gram of tissue | radioactivity concentration, Spinal cord ([1]; 1 hr): BLQ | radioactivity concentration, Blood ([1]; 4 hr): 0.729 nmol equivalents of olaparib per gram of tissue | radioactivity concentration, Brain ([1]; 4 hr): BLQ | radioactivity concentration, Choroid plexus ([1]; 4 hr): 0.228 nmol equivalents of olaparib per gram of tissue | radioactivity concentration, Kidney cortex (outer) ([1]; 4 hr): 3.16 nmol equivalents of olaparib per gram of tissue | radioactivity concentration, Large intestine mucosa ([1]; 4 hr): 11.1 nmol equivalents of olaparib per gram of tissue | radioactivity concentration, Liver ([1]; 4 hr): 49.3 nmol equivalents of olaparib per gram of tissue | radioactivity concentration, Meninges ([1]; 4 hr): 0.500 nmol equivalents of olaparib per gram of tissue | radioactivity concentration, Pineal body ([1]; 4 hr): 0.318 nmol equivalents of olaparib per gram of tissue | radioactivity concentration, Plasma ([1]; 4 hr): 2.11 nmol equivalents of olaparib per gram of tissue | radioactivity concentration, Small intestine mucosa ([1]; 4 hr): 19.1 nmol equivalents of olaparib per gram of tissue | radioactivity concentration, Spinal cord ([1]; 4 hr): BLQ | radioactivity concentration, Blood ([1]; 8 hr): 0.171 nmol equivalents of olaparib per gram of tissue | radioactivity concentration, Brain ([1]; 8 hr): BLQ | radioactivity concentration, Choroid plexus ([1]; 8 hr): BLQ | radioactivity concentration, Kidney cortex (outer) ([1]; 8 hr): 1.49 nmol equivalents of olaparib per gram of tissue | radioactivity concentration, Large intestine mucosa ([1]; 8 hr): 39.8 nmol equivalents of olaparib per gram of tissue | radioactivity concentration, Liver ([1]; 8 hr): 14.7 nmol equivalents of olaparib per gram of tissue | radioactivity concentration, Meninges ([1]; 8 hr): BLQ | radioactivity concentration, Pineal body ([1]; 8 hr): 0.248 nmol equivalents of olaparib per gram of tissue | radioactivity concentration, Plasma ([1]; 8 hr): 0.180 nmol equivalents of olaparib per gram of tissue | radioactivity concentration, Small intestine mucosa ([1]; 8 hr): 7.93 nmol equivalents of olaparib per gram of tissue | radioactivity concentration, Spinal cord ([1]; 8 hr): BLQ | radioactivity concentration, Blood ([1]; 24 hr): BLQ^3 | radioactivity concentration, Brain ([1]; 24 hr): BLQ | radioactivity concentration, Choroid plexus ([1]; 24 hr): BLQ | radioactivity concentration, Kidney cortex (outer) ([1]; 24 hr): 0.248 nmol equivalents of olaparib per gram of tissue | radioactivity concentration, Large intestine mucosa ([1]; 24 hr): 2.10 nmol equivalents of olaparib per gram of tissue | radioactivity concentration, Liver ([1]; 24 hr): 2.23 nmol equivalents of olaparib per gram of tissue | radioactivity concentration, Meninges ([1]; 24 hr): BLQ | radioactivity concentration, Pineal body ([1]; 24 hr): BLQ | radioactivity concentration, Plasma ([1]; 24 hr): 0.046 nmol equivalents of olaparib per gram of tissue | radioactivity concentration, Small intestine mucosa ([1]; 24 hr): 1.19 nmol equivalents of olaparib per gram of tissue | radioactivity concentration, Spinal cord ([1]; 24 hr): BLQ | radioactivity concentration, Blood ([1]; 72 hr): BLQ | radioactivity concentration, Brain ([1]; 72 hr): BLQ | radioactivity concentration, Choroid plexus ([1]; 72 hr): BLQ | radioactivity concentration, Kidney cortex (outer) ([1]; 72 hr): 0.202 nmol equivalents of olaparib per gram of tissue | radioactivity concentration, Large intestine mucosa ([1]; 72 hr): BLQ | radioactivity concentration, Liver ([1]; 72 hr): 0.604 nmol equivalents of olaparib per gram of tissue | radioactivity concentration, Meninges ([1]; 72 hr): BLQ | radioactivity concentration, Pineal body ([1]; 72 hr): BLQ | radioactivity concentration, Plasma ([1]; 72 hr): 0.009 nmol equivalents of olaparib per gram of tissue | radioactivity concentration, Small intestine mucosa ([1]; 72 hr): BLQ | radioactivity concentration, Spinal cord ([1]; 72 hr): BLQ | radioactivity concentration, Blood ([1]; 168 hr): BLQ | radioactivity concentration, Brain ([1]; 168 hr): BLQ | radioactivity concentration, Choroid plexus ([1]; 168 hr): BLQ | radioactivity concentration, Kidney cortex (outer) ([1]; 168 hr): BLQ | radioactivity concentration, Large intestine mucosa ([1]; 168 hr): BLQ | radioactivity concentration, Liver ([1]; 168 hr): 0.164 nmol equivalents of olaparib per gram of tissue | radioactivity concentration, Meninges ([1]; 168 hr): BLQ | radioactivity concentration, Pineal body ([1]; 168 hr): BLQ | radioactivity concentration, Small intestine mucosa ([1]; 168 hr): BLQ | radioactivity concentration, Spinal cord ([1]; 168 hr): BLQ | patients needing dose reductions for neutropenia (grade 3) and thrombocytopenia (grade 2) (cohort 1, olaparib with TMZ): 2 | DLT (cohort 3, olaparib with TMZ, one DLT): grade 3 vomiting | toxicity and tolerability of schedule (cohort 4, olaparib with TMZ, one patient): toxic death associated with pancytopenia, septic shock, and renal failure | grade 2 nausea, patients [4]: 1 | grade 2 pruritus, patients [4]: 1 | grade 2 vomiting, patients [4]: 1 | grade 3–4 anemia, patients [4]: 3 | grade 3–4 lymphopenia, patients [4]: 7 | grade 3–4 neutropenia, patients [4]: 2 | grade 3–4 thrombocytopenia, patients [4]: 4 | patients with grade 3–4 hematological toxicities [4]: 7 | effect on TMZ-related hematological toxicity (olaparib with TMZ): exacerbated | MTD / RP2D, olaparib dose (once daily, days 1–3 per week, with TMZ 75 mg/m^2 daily for 42 days): 150 mg | changes in perfusion or permeability parameters between baseline and post-olaparib scans (recurrent GBM [2]): no significant changes | patients progression free at 6 months (PFS-6) (recurrent GBM [3]; evaluable patients): 36% and 39% | number of patients progression free at 6 months (recurrent GBM [3]; of 36 patients evaluable for efficacy): 14

Source: PMC7746945 (Neuro-Oncology, 2020)
